The numbers were not newly measured in patent publication US9399681B2, “Amatoxin-conjugates with improved linkers” (Heldelberg Pharma GmbH, priority 2010, dated 2016), which cites them from elsewhere.

What is called Kd is a measure of binding affinity in units of concentration.

This data set deals with DNA-dependent RNA polymerase II of mammalian cells (Homo sapiens, UniProt P24928). The following applies: background statement, non-covalent complex; read-out: KD of the complex between amanitin and RNA-polymerase II.

In the case of amanitin, the Kd was 3 nM.
